From US20180209956A1, “HTS Assay for Identifying Small Molecule Inhibitors of RAD52 and Uses of Identified Small Molecule Inhibitors for Treatment and Prevention of BRCA-Deficient Malignancies” (University of Iowa Research Foundation, priority 2015, published 2018)

Tests used:
[1] = tested on: GM01604 cells; assay: Neutral comet assay of RAD52/MUS81-dependent DSB formation; assay type: cell-based, human; conditions: for IC50 for decrease of mean tail moment following HU treatment, in words: 2 mM HU + 300 nM UCN01, 6 h
Source text: Inhibiting the RAD52-ssDNA interaction interferes with RAD52/MUS81-mediated DSB formation essential for the replication fork recovery in check point deficient cells: In human cells, RAD52 may perform both limited recombination-mediator function in the RAD51-dependent pathway (Lok and Powell, 2012, Benson et al., 1998, Feng et al., 2011) as well as additional RAD51-independent roles (Lok and Powell, 2012, Murfuni et al., 2013, Mcllwraith and West, 2008). One of these HR independent roles of RAD52 involves stimulation of MUS81/EME1-dependent DSB formation at the replication forks stalled by hydroxyurea (HU) treatment in the absence of cellular checkpoints (Murfuni et al., 2013). Since the most likely targets of these MUS81/EME1/RAD52-dependent DSBs are the DNA structures produced by RAD52 (Murfuni et al., 2013), we expected this activity to depend on the RAD52-ssDNA interaction (FIG. 5a). To confirm this, we assessed DSB formation in the checkpoint deficient cells using the neutral comet assay. These assays monitor MUS81/EME1/RAD52-dependent DSB formation upon induction of replication stress by HU treatment in primary fibroblasts immortalized by hTERT expression and treated with UNC01 to inhibit CHK1 kinase (FIG. 5b). […] Importantly, these inhibitors recapitulate RAD52 depletion by inhibiting RAD52-MUS81-dependent DSBs at stalled replication forks (FIG. 5a-b). […] It also confirms our previous supposition that the target of MUS81/EME1-mediated cleavage under these conditions are indeed the structures annealed by RAD52. […] We previously reported that concomitant depletion of RAD52 and MUS81 gives raise to the MUS81-independent DSBs (Murfuni et al., 2013). […] Furthermore, accumulation of anaphase bridges, a phenotype associated with impairment of the RAD52-independent mitotic function of MUS81/EME1 was completely unaffected by inhibition of RAD52, whereas it was strongly stimulated by MUS81 silencing (FIG. 5 Supplement 1).
Neutral Comet Assay: To induce RAD52-MUS81-dependent cleavage at arrested replication forks (Murfuni et al., 2013), hTERT-immortalized wild-type human fibroblasts (GM01604) were treated with 2 mM HU and 300 nM UCN01 for 6 h, in the presence and absence of varying concentrations of ‘1’ or ‘6’. Where indicated, the GM01604 cells were cells were transfected with siRNAs directed against GFP (Ctrl), or against RAD52 (Qiagen) 48 hours prior to induction of the replication stress and/or inhibitor treatment. After that cells were subjected to neutral comet assay as described in Murfuni et al (Murfuni et al., 2013). Slides were analyzed by a computerized image analysis system (Comet IV, Perceptive UK). To assess the quantity of DNA damage, computer-generated tail moment values (tail length×fraction of total DNA in the tail) were used. Apoptotic cells (smaller comet head and extremely larger comet tail) were excluded from the analysis to avoid artificial enhancement of tail moment. A minimum of 100 cells were analyzed for each compound concentration point.

[2] = target: T1, RPA (Homo sapiens, UniProt P15927+P27694+P35244); assay: WaterLOGSY NMR analysis of compound binding to RPA; conditions: 20 or 40 μM compound, 3.3 μM RPA
T1 construct: made in house
T1 sequence (P27694 whole entry): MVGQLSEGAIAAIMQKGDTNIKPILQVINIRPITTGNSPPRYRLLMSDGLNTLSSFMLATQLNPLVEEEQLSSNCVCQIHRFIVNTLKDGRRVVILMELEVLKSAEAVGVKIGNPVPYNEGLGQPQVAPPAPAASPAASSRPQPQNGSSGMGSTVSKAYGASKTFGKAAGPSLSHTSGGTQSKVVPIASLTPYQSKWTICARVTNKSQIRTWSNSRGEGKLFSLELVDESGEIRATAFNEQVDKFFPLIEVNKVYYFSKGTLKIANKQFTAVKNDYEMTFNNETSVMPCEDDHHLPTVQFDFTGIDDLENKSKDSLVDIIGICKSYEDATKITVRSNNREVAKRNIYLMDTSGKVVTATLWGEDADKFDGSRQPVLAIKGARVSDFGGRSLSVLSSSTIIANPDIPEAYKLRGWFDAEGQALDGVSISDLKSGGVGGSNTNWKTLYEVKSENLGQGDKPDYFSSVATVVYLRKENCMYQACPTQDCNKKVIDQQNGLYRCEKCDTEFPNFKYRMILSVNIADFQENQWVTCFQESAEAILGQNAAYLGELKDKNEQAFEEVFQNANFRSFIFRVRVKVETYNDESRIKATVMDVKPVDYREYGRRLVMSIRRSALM
T1 sequence (P15927 whole entry): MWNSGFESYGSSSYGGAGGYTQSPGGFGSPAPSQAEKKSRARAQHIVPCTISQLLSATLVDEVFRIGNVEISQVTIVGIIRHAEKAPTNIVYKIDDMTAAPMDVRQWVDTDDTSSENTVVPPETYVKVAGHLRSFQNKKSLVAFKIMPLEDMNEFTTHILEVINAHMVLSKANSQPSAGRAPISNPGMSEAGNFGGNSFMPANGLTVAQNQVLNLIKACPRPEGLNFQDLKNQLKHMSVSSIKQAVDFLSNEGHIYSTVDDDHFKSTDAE
T1 sequence (P35244 whole entry): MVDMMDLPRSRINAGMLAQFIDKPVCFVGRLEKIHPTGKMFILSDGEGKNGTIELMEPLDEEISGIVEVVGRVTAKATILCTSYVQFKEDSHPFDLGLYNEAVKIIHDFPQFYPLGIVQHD
Source text: Compounds ‘1’ and ‘6’ physically interact with RAD52: To confirm that the selected compounds bind RAD52, we employed water-ligand observation with gradient spectroscopy (WaterLOGSY), an NMR technique, which is based on transfer of magnetization from bulk water to the protein-bound compound of interest (Dalvit et al., 2001, Dalvit et al., 2000). In WaterLOGSY spectrum, if a compound binds to a protein, the compound will receive negative nuclear Overhauser effects (NOEs) due to the slow tumbling of the protein-compound complex, leading to a positive WaterLOGSY peak.
WaterLOGSY NMR analysis of the compound binding to RAD52 and RPA proteins: Compound binding to RAD52 and RPA proteins was analyzed using water-ligand observation with gradient spectroscopy (WaterLOGSY) NMR experiments (Dalvit et al., 2001, Dalvit et al., 2000). The WaterLOGSY spectra of compounds in the presence of RAD52 or RPA were acquired using a water NOE mixing time of 1 s and a T2 relaxation filter of 50 ms just before data acquisition to suppress the broad signals derived from protein. The protein buffer used in the experiments contains 10 mM Tris-d11, 75 mM KCl, 0.25 mM EDTA, pH 7.5, and 10% D20. All NMR data were acquired on a Bruker Avance II 800 MHz NMR spectrometer equipped with a sensitive cryoprobe and recorded at 25° C. The ^1H chemical shifts were referenced to 2,2-dimethyl-2-silapentane-5-sulfonate (DSS). NMR spectra were processed using NMR Pipe (Delaglio et al., 1995) and analysed using NMR View (Johnson and Blevins, 1994).

[3] = target: T2, RPA-ssDNA interaction (Homo sapiens, UniProt P15927+P27694+P35244); assay: FRET titration of the RPA-Cy3-dT30-Cy5 complex; assay type: binding
T2 construct: made in house
T2 sequence (P27694 whole entry): as the sequence (P27694 whole entry) above
T2 sequence (P15927 whole entry): as the sequence (P15927 whole entry) above
T2 sequence (P35244 whole entry): as the sequence (P35244 whole entry) above
Source text: Compounds ‘1’ and ‘6’ inhibit RAD52 binding to and annealing of the RPA-coated ssDNA: In the cell, ssDNA is typically found in complex with Replication protein A (RPA), which is the major eukaryotic ssDNA-binding protein essential for DNA replication, repair and recombination (Wold, 1997, Oakley and Patrick, 2010, Chen and Wold, 2014). The RPA-ssDNA complex is a natural substrate for the RDA52-mediated strand annealing. To confirm that compounds ‘1’ and ‘6’ can inhibit the RAD52 binding to and annealing of the RPA-coated ssDNA we added stoichiometric amounts of RPA (1 RPA per 30 nucleotides of ssDNA) to the FRET-based ssDNA binding/wrapping and ssDNA annealing experiments described above. RPA binds ssDNA with high affinity and extends the ssDNA to its contour length. In our assays such an extension manifests as a distinct FRET state of ˜0.3, which is readily distinguished from a FRET state of ˜0.48 of free Cy3-dT30-Cy5 ssDNA, as well as ˜0.63 FRET of the stoichiometric ssDNA-RPA-RAD52 complex (see FIG. 2 Supplement 1 and (Grimme and Spies, 2011) for details). […] Both, however, inhibited the RAD52 binding to and wrapping of RPA-coated ssDNA with IC50 values identical to those determined without RPA (FIG. 2e and FIG. 3e).
where FRET0 is the initial FRET value of RAD52-ssDNA complex in the absence of the compound and FRETmin is the FRET value at complete inhibition. FRET values were calculated as an average of three or more independent annealing reactions plotted against the concentration of the compound. Inhibition of the RAD52-dsDNA interaction was assayed in a similar experiment, except the stoichiometric complexes containing 1 nM molecules of Cy3-Oligo28-Cy5 duplex DNA and 10 nM RAD52. […] In all experiments, the FRET values for each data point were corrected for the effects of the compounds on the respective substrate in the absence of RAD52.

In the case of `O=C(O[C@@H]1Cc2c(O)cc(O)cc2O[C@@H]1c1cc(O)c(O)c(O)c1)c1cc(O)c(O)c(O)c1` [Compound 6, Epigallocatechin-3-monogallate], the “IC50 for decrease of mean tail moment following HU treatment, in words” value [1] is reported as “mid nanomolar to low micromolar”, the “Concentration sufficient to achieve the same level in DSB reduction as siRNA treatment” value ([1]; HU + UCN01) is reported as “higher concentration” and the “DSB formation in RAD52-depleted cells” value ([1]; RAD52 siRNA plus compound) is reported as “failed to further decrease the formation of DNA breaks”. For the same molecule, the “Binding to RPA by WaterLOGSY” value [2] was “binds to RPA” and the “Effect on the RPA-ssDNA interaction” value [3] was “does not interfere with the RPA-ssDNA interaction”.
For `Oc1cc(O)c2c(c1)O[C@H](c1cc(O)c(O)c(O)c1)[C@H](O)C2` [Compound ‘1’, (−)-Epigallocatechin], the “Reduction in DSBs compared with siRNA depletion of RAD52” value ([1]; 500 nM compound, HU + UCN01) was “same effect of reduction in DSBs as siRNA depletion of RAD52”, the “IC50 for decrease of mean tail moment following HU treatment, in words” value [1] was “mid nanomolar to low micromolar” and the “Concentration sufficient to achieve the same level in DSB reduction as siRNA treatment” value ([1]; HU + UCN01) was 1 µM. For the same molecule, the “DSB formation in MUS81-depleted cells” value ([1]; replication stress induced by CHK1 inhibition) was “appearance of the MUS81-independent DSBs”, the “Binding to RPA by WaterLOGSY” value [2] was “neither binds to RPA” and the “Effect on the RPA-ssDNA interaction” value [3] was “nor interferes with the RPA-ssDNA interaction”.
